Values quoted from earlier work as cited in patent US6676963B1, “Ligand-targeted emulsions carrying bioactive agents” (Barnes-Jewish Hospital, priority 2000, dated 2004).
Like-named read-outs stand apart in the source and are kept apart here.

Conditions: for solubility in water / buffer (in words): water or aqueous buffer

| Compound | solubility in water / buffer (in words) | solubility in lipid emulsions (in words) (lipid emulsions such as Intralipid or Liposyn) | solubility in water / buffer (in words) (listed as paclitaxel) |
| --- | --- | --- | --- |
| COc1cccc2c1C(=O)c1c(O)c3c(c(O)c1C2=O)C[C@@](O)(C(=O)CO)C[C@@H]3O[C@H]1C[C@H](N)[C@H](O)[C@H](C)O1 [Doxorubicin, doxorubicin] | highly water soluble |  |  |
| CC(=O)O[C@H]1C(=O)[C@@]2(C)[C@H]([C@H](OC(=O)c3ccccc3)[C@]3(O)C[C@H](OC(=O)[C@H](O)[C@@H](NC(=O)c4ccccc4)c4ccccc4)C(C)=C1C3(C)C)[C@]1(OC(C)=O)CO[C@@H]1C[C@@H]2O [taxol, paclitaxel] | insoluble in water | insoluble in lipid emulsions | highly insoluble in buffer |
